Measurements: patent publication US12448383B2, “Compounds and methods for treatment of viral infections” (priority 2022, dated 2025)

Assays:
[1] = system: Respiratory syncytial virus recombinant with luciferase (RSV-Luc5) in Normal Human Bronchial Epithelial (NHBE) cells; test: microbe, parasite or virus in culture; format: cell-based; conditions: 72 h, read-out: RSV NHBE EC50
Plasma stability = format: in vitro ADME; parameters: unit not given here; conditions: 37° C., 2 μM substrate
Summary of the method: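 LC-MS (Q-Exactive, 5 ppm tolerance, 0.1% formic acid water/acetonitrile gradient) quantified compound in quenched aliquots. Aliquots were taken at 0.05, 0.5, 1, 2, 3 and 4 hr and quenched with internal-standard solution, and supernatants were diluted with water after centrifugation.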

[2] = CC50 MT4 cytotoxicity (Cell-Titer Glo); format: cell-based; conditions: human
Summary of the method: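 CC50 values are the concentrations cutting viability by 50%, fitted by non-linear regression against untreated (100%) and 2 μM puromycin (0%) controls. Cell-Titer Glo luminescence measured after 4-5 days at 37° C exposure of uninfected MT-4 and HEp-2 cells to 3-fold dilutions spanning 15 nM to 100,000 nM.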

[3] = system: Respiratory syncytial virus recombinant with luciferase (RSV-Luc5) in HEp-2 cells; test: microbe, parasite or virus in culture; format: cell-based; conditions: human respiratory syncytial virus, HEp-2, 72 h, read-out: RSV Hep2 EC50
GI S9 stability = format: in vitro ADME; conditions: human, s9, pH 7.4
Experimental: Example G: GI S9 Stability
Duplicate aliquots of test compound or positive control substrate (GS-7340) were added to S9 stock diluted with 100 mM phosphate buffered saline, pH 7.4, to obtain a protein concentration of 1.0 mg/mL. The S9 metabolic reactions were initiated by the addition of the substrates to the S9 reaction mixture to a final concentration of 2 μM. At 0, 10, 20, 30, 60 and 120 min, […] aliquots of the reaction mixture were transferred to plates containing […] of IS/Q solution. After quenching, the plates were centrifuged at 3000 g for 30 minutes, and 150 μL aliquots of each supernatant were diluted with 150 μL water. Aliquots ([…]) of the diluted supernatant were analyzed on a Thermo Q-Exactive mass spectrometer as described below. GI S9 Stability—No phenylmethylsulfonyl fluoride (PMSF): Similar to the procedure described above, test compounds were incubated at 2 μM with 1 mg/mL PMSF-free Intestinal S9 fractions. Samples are removed at 6 time points over the course of a 120 min experiment and the parent compound disappreance and reference compound A formation is determined by mass spectrometry.
Example K: Liquid Chromatography/Mass Spectroscopy Methods for S9 and Plasma Stability
Quantification of test compounds, Reference Compound A (S9 stability assay nucleoside metabolite), and controls was performed by analyte/internal standard peak area ratio (PAR) values measured on a Thermo Q-Exactive mass spectrometer coupled to a Dionex UltiMate 3000 HPLC with a Leap Technologies HTC PAL autosampler. The column used for analysis of test compounds and Reference Compound A was a Waters Acquity BEH C18 ([…] particle size, 2.1′50 mm). The column used for control (GS-7340) was a Thermo Hypersil GOLD ([…] particle size, 2.1′50 mm). Mobile phase A consisted of 0.1% (v/v) formic acid in water. Mobile phase B consisted of 0.1% (v/v) formic acid in acetonitrile. Elution of analytes was achieved by a series of linear gradients of acetonitrile in water containing 0.1°(v/v) formic acid. The mass spectrometer was calibrated on a weekly basis and mass tolerance of 5 ppm was used.

[4] = system: SARS Coronavirus 2 recombinant with NanoLuc (SARS-CoV2-NLuc) in A549-hACE2 cells; test: organism not typed; format: cell-based; conditions: 48 h; read-out: SARS-CoV2 EC50
[5] = Stability in pH2 buffered solution; format: physicochemical; conditions: pH2 phosphate buffer, 40° C., 24 h; Table N2
Experimental: (§1) Example N: Stability in p112 and p117 Buffered Solutions
(§2) The aqueous stability of compounds over a time of 24 hours at 40° C. was assessed. Stability was determined in 50 mM phosphate buffered solutions at both pH2 and pH7, with 150 mM NaCl (to achieve isotonicity). 3-5 mg of solid compounds were added to 7 mL scintillation vials. Acetonitrile was added to each vial to produce a 1 mg/mL stock solution. Stock solutions were diluted to 50 μg/mL in either pH2 or pH7 phosphate buffer, to a volume of 1 mL. For each compound and pH condition, 50 μg/mL samples were prepped in duplicate. One sample was placed on the UPLC tray at 40° C. for analysis, and the second sample was placed in a 40° C. oven for storage. Sample preps for each compound were offset by 40 minutes to account for run time on UPLC.
(§3) Concentration timepoints were measured at 0, 3, 6, 9, and 12 hrs. After 24 hrs, samples in the 40° C. oven were removed and analyzed by UPLC.
(§4) In FIG. 2, % AN stands for % area normalized. That is, % AN is the area of the compound peak relative to the sum of areas of all the peaks in the UPLC chromatogram. For example, if there were two peaks, compound peak with an area of 9 and another peak with an area of 1, then the % AN of the compound peak would be 90%.

[6] = system: Caco-2 cells (clone C2BBe1); test: CACO-2 permeability; format: in vitro ADME; parameters: unit not given here; conditions: for DM Caco2 A to B: apical to basolateral, donor pH 6.5, receiver pH 7.4; for DM Caco2 B to A: basolateral to apical
Summary of the method: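 A-to-B and B-to-A flux measured by LC-MS/MS from receiver samples taken at 1 and 2 h, with donor sampled at 0 and 2 h and recovery checked. Buffers: pH 6.5 HBSS with 200 μM BNPP on the donor side, pH 7.4 with BSA on the receiver side. Monolayers were 21-day cultures, TEER-verified, in duplicate wells.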

[7] = Stability in pH7 buffered solution; format: physicochemical; conditions: pH7 phosphate buffer, 40° C., Table N2
Experimental: as §1, §2, §3, §4

[8] = Thermodynamic solubility in pH7 buffered solution; conditions: 50 mM phosphate buffer pH7, 150 mM NaCl, ambient temperature, 24 hours
Experimental: Solubility was determined at ambient temperature in a 50 mM phosphate buffered pH7 solution with 150 mM NaCl (to achieve isotonicity). Solids were added to the buffered solution in 1.5-mL Eppendorf tubes, vortexed for 1 minute, then agitated for 24 hours in an Eppendorf ThermoMixer C. […] Supernatants were diluted to a volume of 1 mL with 30:70 v/v acetonitrile:water. All diluted supernatants were analyzed by UPLC using a Waters Acquity UPLC with a PDA UV detector.

[9] = GI S9 stability - no PMSF; format: in vitro ADME; conditions: pH 7.4; human intestinal S9, PMSF-free; read-out: GIS9-HUMAN-NoPMSF T1/2
Summary of the method: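 Stability was assessed by Q-Exactive LC-MS peak area ratios against internal standard, tracking loss of parent and appearance of nucleoside metabolite Reference Compound A. Incubations used 2 μM compound in 1 mg/mL intestinal S9 without PMSF (PBS, pH 7.4), with six samples taken over 120 min.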

## N#C[C@@]1(c2ccc3c(N)ncnn23)O[C@H](COC(=O)OC2CCOC2)[C@@H](O)[C@H]1O (stereo partly drawn) [Compound 11, ((2R,3S,4R,5R)-5-(4-aminopyrrolo[2,1-f][1,2,4]triazin-7-yl)-5-cyano-3,4-dihydroxytetrahydrofuran-2-yl)methyl (tetrahydrofuran-3-yl) carbonate]
[1]
  EC50: 2.92 µM
Plasma stability
  STA Human Plasma 37: 135.19
[2]
  CC50: > 50 µM
[3]
  EC50: 4.94 µM
GI S9 stability
  half-life at 2 µM: ≥ 789 min
[4]
  EC50: 20.6 µM

## CC(C)COC(=O)OC[C@H]1O[C@@](C#N)(c2ccc3c(N)ncnn23)[C@H](OC(=O)C(C)C)[C@@H]1OC(=O)C(C)C [Compound 16, (2R,3R,4R,5R)-2-(4-aminopyrrolo[2,1-f][1,2,4]triazin-7-yl)-2-cyano-5-(((isobutoxycarbonyl)oxy)methyl)tetrahydrofuran-3,4-diyl bis(2-methylpropanoate)]
[1]
  EC50: 0.981 µM
Plasma stability
  STA Human Plasma 37: 30.6
[2]
  CC50: 27.8 µM
[3]
  EC50: 1.15 µM
GI S9 stability
  half-life at 2 µM: 1.01 min
[4]
  EC50: 2.57 µM

## COC(=O)[C@H]([C@@H](C)OC(=O)OC[C@H]1O[C@@](C#N)(c2ccc3c(N)ncnn23)[C@H](O)[C@@H]1O)N(C)C [Compound 78, methyl O-((((2R,3S,4R,5R)-5-(4-aminopyrrolo[2,1-f][1,2,4]triazin-7-yl)-5-cyano-3,4-dihydroxytetrahydrofuran-2-yl)methoxy)carbonyl)-N,N-dimethyl-L-threoninate]
[1]
  EC50: 3.6 µM
[5]
  pH 2 Stability 24 h % AN: 90 % AN
Plasma stability
  STA Human Plasma 37: 336.23
[2]
  CC50: > 50 µM
[6]
  DM Caco2 A to B: 0.2
  DM Caco2 B to A: 4.2
[7]
  pH 7 Stability 24 h % AN: 0 % AN
[8]
  Sol pH 7: 0.89
[9]
  half-life at 2 µM: 4320 s
[4]
  EC50: 3.58 µM

## CC(=O)O[C@H]1[C@@H](OC(C)=O)[C@](C#N)(c2ccc3c(N)ncnn23)O[C@@H]1COC(=O)OC(C)(C)c1ccncc1 [Compound 79, (2R,3R,4R,5R)-2-(4-aminopyrrolo[2,1-f][1,2,4]triazin-7-yl)-2-cyano-5-(((((2-(pyridin-4-yl)propan-2-yl)oxy)carbonyl)oxy)methyl)tetrahydrofuran-3,4-diyl diacetate]
[1]
  EC50: > 50 µM
[5]
  pH 2 Stability 24 h % AN: 88 % AN
Plasma stability
  STA Human Plasma 37: 17.837
[2]
  CC50: > 50 µM
[6]
  DM Caco2 A to B: 0.61
  DM Caco2 B to A: 9.26
[7]
  pH 7 Stability 24 h % AN: 77 % AN
[8]
  Sol pH 7: 0.26
[9]
  half-life at 2 µM: 40.9 s
[4]
  EC50: > 50 µM

## CC(C)OC(=O)OC[C@H]1O[C@@](C#N)(c2ccc3c(N)ncnn23)[C@H](OC(=O)OC(C)C)[C@@H]1OC(=O)OC(C)C [Compound 81, (2R,3R,4R,5R)-2-(4-aminopyrrolo[2,1-f][1,2,4]triazin-7-yl)-2-cyano-5-(((isopropoxycarbonyl)oxy)methyl)tetrahydrofuran-3,4-diyl diisopropyl bis(carbonate)]
[1]
  EC50: 0.996 µM
[5]
  pH 2 Stability 24 h % AN: 100 % AN
Plasma stability
  STA Human Plasma 37: 195.87
[2]
  CC50: 48.3 µM
[6]
  DM Caco2 A to B: 7.77
  DM Caco2 B to A: 14.74
[7]
  pH 7 Stability 24 h % AN: 98 % AN
[8]
  Sol pH 7: 0.06
[9]
  half-life at 2 µM: 41.3 s
[4]
  EC50: 24.4 µM

## COC(=O)OC[C@H]1O[C@@](C#N)(c2ccc3c(N)ncnn23)[C@H](OC(=O)OC)[C@@H]1OC(=O)OC [Compound 93, (2R,3R,4R,5R)-2-(4-aminopyrrolo[2,1-f][1,2,4]triazin-7-yl)-2-cyano-5-(((methoxycarbonyl)oxy)methyl)tetrahydrofuran-3,4-diyl dimethyl bis(carbonate)]
[1]
  EC50: 11.1 µM
[5]
  pH 2 Stability 24 h % AN: 94 % AN
Plasma stability
  STA Human Plasma 37: 28.444
[2]
  CC50: 31.7 µM
[6]
  DM Caco2 A to B: 1.2
  DM Caco2 B to A: 8.3
[7]
  pH 7 Stability 24 h % AN: 75 % AN
[8]
  Sol pH 7: 0.62
[9]
  half-life at 2 µM: 61 s
[4]
  EC50: 10.6 µM

## CCOC(=O)OC[C@H]1O[C@@](C#N)(c2ccc3c(N)ncnn23)[C@H](OC(=O)OCC)[C@@H]1OC(=O)OCC [Compound 106, (2R,3R,4R,5R)-2-(4-aminopyrrolo[2,1-f][1,2,4]triazin-7-yl)-2-cyano-5-(((ethoxycarbonyl)oxy)methyl)tetrahydrofuran-3,4-diyl diethyl bis(carbonate)]
[1]
  EC50: 1.4 µM
[5]
  pH 2 Stability 24 h % AN: 100 % AN
Plasma stability
  STA Human Plasma 37: 30.917
[2]
  CC50: > 50 µM
[6]
  DM Caco2 A to B: 4.975
  DM Caco2 B to A: 9.5
[7]
  pH 7 Stability 24 h % AN: 91 % AN
[8]
  Sol pH 7: 0.08
[9]
  half-life at 2 µM: 39.6 s
[4]
  EC50: 4.56 µM

## CCC1O[C@H]2[C@@H](O1)[C@](C#N)(c1ccc3c(N)ncnn13)O[C@@H]2COC(=O)OC(C)C (stereo partly drawn) [Compound 133, ((3aR,4R,6R,6aR)-6-(4-aminopyrrolo[2,1-f][1,2,4]triazin-7-yl)-6-cyano-2-ethyltetrahydrofuro[3,4-d][1,3]dioxol-4-yl)methyl isopropyl carbonate]
[1]
  EC50: > 50 µM
[5]
  pH 2 Stability 24 h % AN: 95 % AN
Plasma stability
  STA Human Plasma 37: 73.357
[2]
  CC50: > 50 µM
[6]
  DM Caco2 A to B: 17.25
  DM Caco2 B to A: 16.82
[7]
  pH 7 Stability 24 h % AN: 98 % AN
[8]
  Sol pH 7: 0.24
[9]
  half-life at 2 µM: 37.4 s
[4]
  EC50: > 50 µM
